Reference: PMC5761851, “Application of a phenotypic drug discovery strategy to identify biological and chemical starting points for inhibition of TSLP production in lung epithelial cells” (PLoS ONE, 2018)
Where two headings read alike, the source gives them in different places.

Key:
[1] = system: Phosphorylation of Akt in THP1 cells; experiment: PI3Kδ dependent pAkt phosphorylation in M-CSF stimulated THP-1 cells; format: cell-based
Method: Quantification of enzymatic p38 activity and p38-dependent TNF production in THP-1 cells was performed as previously described. Enzymatic Syk kinase activity assays and Syk dependent LAD2 cells degranulation assays were performed as previously described. PI3Kδ dependent pAkt phosphorylation in macrophage colony-stimulating factor (M-CSF) stimulated THP-1 cells was measured as previously described.

alpha 1A = biological target: T1, alpha 1A (Homo sapiens, UniProt P35348); experiment: BioPrint panel: alpha 1A (h) (antagonist); format: binding; conditions: 1 micromolar, read-out: percentage of inhibition of activity
T1 construct: purchased Eurofins Pharma Discovery Services (KinaseProfiler; Cerep BioPrint panel)
From the text: (§1) Supplement pone.0189247.s004.xlsx, sheet "Bioprint Selectivity Panel" | column: %

alpha 2B = biological target: T2, alpha 2B (Homo sapiens, UniProt P18089); experiment: BioPrint panel: alpha 2B (h) (antagonist); format: binding; conditions: 1 micromolar, read-out: percentage of inhibition of activity
T2 construct: purchased Eurofins Pharma Discovery Services (KinaseProfiler; Cerep BioPrint panel)
T2 sequence (P18089 whole entry): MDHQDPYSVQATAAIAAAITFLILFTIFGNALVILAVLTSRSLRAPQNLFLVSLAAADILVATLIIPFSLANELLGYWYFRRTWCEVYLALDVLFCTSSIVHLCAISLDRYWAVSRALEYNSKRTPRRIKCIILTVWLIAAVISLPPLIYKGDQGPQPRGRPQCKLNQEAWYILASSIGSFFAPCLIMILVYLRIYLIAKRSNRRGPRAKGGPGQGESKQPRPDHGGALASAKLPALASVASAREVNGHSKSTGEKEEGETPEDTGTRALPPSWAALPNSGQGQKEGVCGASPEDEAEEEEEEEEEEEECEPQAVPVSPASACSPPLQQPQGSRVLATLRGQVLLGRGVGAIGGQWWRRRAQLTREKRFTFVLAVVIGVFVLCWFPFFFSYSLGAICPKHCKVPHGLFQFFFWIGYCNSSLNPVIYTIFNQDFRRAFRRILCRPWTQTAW
From the text: as §1

beta 1 = biological target: T3, beta 1 (Homo sapiens, UniProt P08588); experiment: BioPrint panel: beta 1 (h) (agonist); format: binding; conditions: 1 micromolar, read-out: percentage of inhibition of activity
T3 construct: purchased Eurofins Pharma Discovery Services (KinaseProfiler; Cerep BioPrint panel)
From the text: as §1

D2S = biological target: T4, D2S (Homo sapiens, UniProt P14416); experiment: BioPrint panel: D2S (h) (agonist); format: binding; conditions: 1 micromolar, read-out: percentage of inhibition of activity
T4 construct: purchased Eurofins Pharma Discovery Services (KinaseProfiler; Cerep BioPrint panel)
From the text: as §1

AMPA = experiment: BioPrint panel: AMPA (agonist); format: binding; conditions: 1 micromolar
From the text: as §1

kainate = experiment: BioPrint panel: kainate (agonist); format: binding; conditions: 1 micromolar
From the text: as §1

[2] = system: glycine (strychnine-insensitive); experiment: BioPrint panel: glycine (strychnine-insensitive)(antagonist); format: binding; conditions: 1 micromolar
From the text: as §1

H3 = biological target: T5, H3 (Homo sapiens, UniProt Q9Y5N1); experiment: BioPrint panel: H3 (h) (agonist); format: binding; conditions: 1 micromolar, read-out: percentage of inhibition of activity
T5 construct: purchased Eurofins Pharma Discovery Services (KinaseProfiler; Cerep BioPrint panel)
T5 sequence (Q9Y5N1 whole entry): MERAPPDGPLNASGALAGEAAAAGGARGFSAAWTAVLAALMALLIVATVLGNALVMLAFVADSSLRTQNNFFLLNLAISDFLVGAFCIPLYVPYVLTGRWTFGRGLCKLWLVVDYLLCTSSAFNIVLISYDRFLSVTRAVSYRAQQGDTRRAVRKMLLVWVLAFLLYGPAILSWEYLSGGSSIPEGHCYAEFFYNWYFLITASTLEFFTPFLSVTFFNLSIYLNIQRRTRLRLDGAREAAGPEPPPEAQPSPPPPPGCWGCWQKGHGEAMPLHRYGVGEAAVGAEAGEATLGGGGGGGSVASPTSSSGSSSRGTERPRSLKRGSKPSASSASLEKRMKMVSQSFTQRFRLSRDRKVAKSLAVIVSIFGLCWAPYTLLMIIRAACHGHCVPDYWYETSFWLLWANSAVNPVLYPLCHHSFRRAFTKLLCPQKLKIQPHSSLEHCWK
From the text: as §1

BLT1 (LTB4) = biological target: T6, BLT1 (LTB4) (Homo sapiens, UniProt Q15722); experiment: BioPrint panel: BLT1 (LTB4) (h) (agonist); format: binding; conditions: 1 micromolar, read-out: percentage of inhibition of activity
T6 construct: purchased Eurofins Pharma Discovery Services (KinaseProfiler; Cerep BioPrint panel)
T6 sequence (Q15722 whole entry): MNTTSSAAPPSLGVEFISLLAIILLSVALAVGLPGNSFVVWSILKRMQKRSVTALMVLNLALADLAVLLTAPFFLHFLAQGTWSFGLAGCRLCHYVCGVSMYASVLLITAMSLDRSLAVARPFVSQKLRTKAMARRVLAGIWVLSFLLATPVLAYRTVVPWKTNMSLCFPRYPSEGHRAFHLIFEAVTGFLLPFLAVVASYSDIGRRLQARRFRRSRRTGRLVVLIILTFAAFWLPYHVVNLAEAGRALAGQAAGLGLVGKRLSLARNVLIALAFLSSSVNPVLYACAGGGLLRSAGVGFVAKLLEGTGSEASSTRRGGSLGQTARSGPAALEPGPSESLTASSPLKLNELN
From the text: as §1

MC1 = biological target: T7, MC1 (Mus musculus, UniProt Q01727); experiment: BioPrint panel: MC1 (agonist); format: binding; conditions: 1 micromolar, read-out: percentage of inhibition of activity
T7 construct: purchased Eurofins Pharma Discovery Services (KinaseProfiler; Cerep BioPrint panel)
From the text: as §1

MC4 = biological target: T8, MC4 (Homo sapiens, UniProt P32245); experiment: BioPrint panel: MC4 (h) (agonist); format: binding; conditions: 1 micromolar, read-out: percentage of inhibition of activity
T8 construct: purchased Eurofins Pharma Discovery Services (KinaseProfiler; Cerep BioPrint panel)
T8 sequence (P32245 whole entry): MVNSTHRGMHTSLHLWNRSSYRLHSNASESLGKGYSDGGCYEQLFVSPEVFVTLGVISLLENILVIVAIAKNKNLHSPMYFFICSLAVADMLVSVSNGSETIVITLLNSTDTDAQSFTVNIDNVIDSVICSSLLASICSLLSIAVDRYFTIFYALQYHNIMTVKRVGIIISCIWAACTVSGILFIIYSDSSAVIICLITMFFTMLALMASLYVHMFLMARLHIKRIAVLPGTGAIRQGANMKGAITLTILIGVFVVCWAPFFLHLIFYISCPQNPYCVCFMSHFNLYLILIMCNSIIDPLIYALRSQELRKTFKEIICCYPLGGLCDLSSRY
From the text: as §1

MT1 (ML1A) = biological target: T9, MT1 (ML1A) (Homo sapiens, UniProt P48039); experiment: BioPrint panel: MT1 (ML1A) (h) (agonist); format: binding; conditions: 1 micromolar, read-out: percentage of inhibition of activity
T9 construct: purchased Eurofins Pharma Discovery Services (KinaseProfiler; Cerep BioPrint panel)
T9 sequence (P48039 whole entry): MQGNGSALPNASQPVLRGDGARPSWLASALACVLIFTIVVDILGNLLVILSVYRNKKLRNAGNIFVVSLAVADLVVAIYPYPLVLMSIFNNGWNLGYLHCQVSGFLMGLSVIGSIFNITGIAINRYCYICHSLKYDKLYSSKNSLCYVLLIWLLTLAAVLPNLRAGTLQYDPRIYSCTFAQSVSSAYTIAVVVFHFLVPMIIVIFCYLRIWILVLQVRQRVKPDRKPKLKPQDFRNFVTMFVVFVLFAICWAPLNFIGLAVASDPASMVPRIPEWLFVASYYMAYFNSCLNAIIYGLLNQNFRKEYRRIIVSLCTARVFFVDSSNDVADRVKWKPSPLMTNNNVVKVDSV
From the text: as §1

MAO-A = biological target: T10, MAO-A (Rattus norvegicus, UniProt P21396); experiment: BioPrint panel: MAO-A (antagonist); format: binding; conditions: 1 micromolar, read-out: percentage of inhibition of activity
T10 construct: purchased Eurofins Pharma Discovery Services (KinaseProfiler; Cerep BioPrint panel)
From the text: as §1

PAF = biological target: T11, PAF (Homo sapiens, UniProt P25105); experiment: BioPrint panel: PAF (h) (agonist); format: binding; conditions: 1 micromolar, read-out: percentage of inhibition of activity
T11 construct: purchased Eurofins Pharma Discovery Services (KinaseProfiler; Cerep BioPrint panel)
From the text: as §1

FP = biological target: T12, FP (Homo sapiens, UniProt P43088); experiment: BioPrint panel: FP (h) (agonist); format: binding; conditions: 1 micromolar, read-out: percentage of inhibition of activity
T12 construct: purchased Eurofins Pharma Discovery Services (KinaseProfiler; Cerep BioPrint panel)
T12 sequence (P43088 whole entry): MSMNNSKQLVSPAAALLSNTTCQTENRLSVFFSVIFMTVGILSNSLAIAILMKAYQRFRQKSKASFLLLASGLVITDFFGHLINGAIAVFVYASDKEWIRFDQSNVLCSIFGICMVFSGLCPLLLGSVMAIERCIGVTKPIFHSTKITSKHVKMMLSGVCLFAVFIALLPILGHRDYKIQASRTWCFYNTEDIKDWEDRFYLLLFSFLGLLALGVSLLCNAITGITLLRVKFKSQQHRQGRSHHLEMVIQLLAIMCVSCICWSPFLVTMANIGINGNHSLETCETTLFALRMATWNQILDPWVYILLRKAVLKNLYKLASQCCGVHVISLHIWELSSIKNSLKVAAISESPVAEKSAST
From the text: as §1

5-HT1A = biological target: T13, 5-HT1A (Homo sapiens, UniProt P08908); experiment: BioPrint panel: 5-HT1A (h) (agonist); format: binding; conditions: 1 micromolar, read-out: percentage of inhibition of activity
T13 construct: purchased Eurofins Pharma Discovery Services (KinaseProfiler; Cerep BioPrint panel)
From the text: as §1

GR = biological target: T14, GR (Homo sapiens, UniProt P04150); experiment: BioPrint panel: GR (h) (agonist); format: binding; conditions: 1 micromolar, read-out: percentage of inhibition of activity
T14 construct: purchased Eurofins Pharma Discovery Services (KinaseProfiler; Cerep BioPrint panel)
From the text: as §1

[3] = system: Ca2+ channel (L, verapamil site); experiment: BioPrint panel: Ca2+ channel (L, verapamil site) (antagonist); format: binding; conditions: 1 micromolar
From the text: as §1

SKCa channel = experiment: BioPrint panel: SKCa channel (antagonist); format: binding; conditions: 1 micromolar
From the text: as §1

[4] = biological target: T15, norepinephrine transporter (Homo sapiens, UniProt P23975); experiment: BioPrint panel: norepinephrine transporter (h) (antagonist); format: binding; conditions: 1 micromolar, read-out: percentage of inhibition of activity
T15 construct: purchased Eurofins Pharma Discovery Services (KinaseProfiler; Cerep BioPrint panel)
From the text: as §1

5-HT transporter = biological target: T16, 5-HT transporter (Homo sapiens, UniProt P31645); experiment: BioPrint panel: 5-HT transporter (h) (antagonist); format: binding; conditions: 1 micromolar, read-out: percentage of inhibition of activity
T16 construct: purchased Eurofins Pharma Discovery Services (KinaseProfiler; Cerep BioPrint panel)
T16 sequence (P31645 whole entry): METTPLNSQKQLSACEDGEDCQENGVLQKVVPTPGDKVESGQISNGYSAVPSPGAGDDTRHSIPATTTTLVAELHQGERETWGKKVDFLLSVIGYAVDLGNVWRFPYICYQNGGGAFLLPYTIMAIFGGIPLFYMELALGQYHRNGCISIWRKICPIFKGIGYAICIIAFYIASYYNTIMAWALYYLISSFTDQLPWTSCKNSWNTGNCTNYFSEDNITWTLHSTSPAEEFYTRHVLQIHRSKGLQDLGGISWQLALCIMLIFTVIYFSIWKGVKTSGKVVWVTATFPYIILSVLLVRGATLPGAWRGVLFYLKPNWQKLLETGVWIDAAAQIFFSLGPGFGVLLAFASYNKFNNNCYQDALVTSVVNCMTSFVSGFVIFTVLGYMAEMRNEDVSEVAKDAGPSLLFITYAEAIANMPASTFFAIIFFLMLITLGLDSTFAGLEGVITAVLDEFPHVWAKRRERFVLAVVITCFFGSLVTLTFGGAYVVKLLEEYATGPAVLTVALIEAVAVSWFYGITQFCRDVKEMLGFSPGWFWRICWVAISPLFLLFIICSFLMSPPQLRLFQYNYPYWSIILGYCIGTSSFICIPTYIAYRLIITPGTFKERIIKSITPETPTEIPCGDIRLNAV
From the text: as §1

PDE4D2 = biological target: T17, PDE4D2 (Homo sapiens, UniProt Q08499); experiment: BioPrint panel: PDE4D2 (h); format: biochemical; conditions: 1 micromolar, read-out: percentage of inhibition of activity
T17 construct: purchased Eurofins Pharma Discovery Services (KinaseProfiler; Cerep BioPrint panel)
T17 sequence (Q08499 303-809 limits assumed): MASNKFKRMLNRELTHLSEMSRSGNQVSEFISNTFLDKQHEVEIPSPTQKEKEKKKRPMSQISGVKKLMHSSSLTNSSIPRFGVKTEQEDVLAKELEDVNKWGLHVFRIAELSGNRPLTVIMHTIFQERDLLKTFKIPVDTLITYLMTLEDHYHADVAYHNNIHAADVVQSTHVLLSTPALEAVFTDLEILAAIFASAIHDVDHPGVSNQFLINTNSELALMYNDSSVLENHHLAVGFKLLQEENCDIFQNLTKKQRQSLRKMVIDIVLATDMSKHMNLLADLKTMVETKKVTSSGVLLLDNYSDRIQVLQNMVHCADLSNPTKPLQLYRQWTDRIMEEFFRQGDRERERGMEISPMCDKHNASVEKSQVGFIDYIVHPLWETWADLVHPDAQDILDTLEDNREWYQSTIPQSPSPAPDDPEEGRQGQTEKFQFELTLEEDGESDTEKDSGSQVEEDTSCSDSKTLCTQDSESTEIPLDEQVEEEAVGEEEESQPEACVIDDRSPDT
From the text: as §1

ACE-2 = biological target: T18, ACE-2 (Homo sapiens, UniProt Q9BYF1); experiment: BioPrint panel: ACE-2 (h); format: biochemical; conditions: 1 micromolar
T18 construct: purchased Eurofins Pharma Discovery Services (KinaseProfiler; Cerep BioPrint panel)
T18 sequence (Q9BYF1 18-805): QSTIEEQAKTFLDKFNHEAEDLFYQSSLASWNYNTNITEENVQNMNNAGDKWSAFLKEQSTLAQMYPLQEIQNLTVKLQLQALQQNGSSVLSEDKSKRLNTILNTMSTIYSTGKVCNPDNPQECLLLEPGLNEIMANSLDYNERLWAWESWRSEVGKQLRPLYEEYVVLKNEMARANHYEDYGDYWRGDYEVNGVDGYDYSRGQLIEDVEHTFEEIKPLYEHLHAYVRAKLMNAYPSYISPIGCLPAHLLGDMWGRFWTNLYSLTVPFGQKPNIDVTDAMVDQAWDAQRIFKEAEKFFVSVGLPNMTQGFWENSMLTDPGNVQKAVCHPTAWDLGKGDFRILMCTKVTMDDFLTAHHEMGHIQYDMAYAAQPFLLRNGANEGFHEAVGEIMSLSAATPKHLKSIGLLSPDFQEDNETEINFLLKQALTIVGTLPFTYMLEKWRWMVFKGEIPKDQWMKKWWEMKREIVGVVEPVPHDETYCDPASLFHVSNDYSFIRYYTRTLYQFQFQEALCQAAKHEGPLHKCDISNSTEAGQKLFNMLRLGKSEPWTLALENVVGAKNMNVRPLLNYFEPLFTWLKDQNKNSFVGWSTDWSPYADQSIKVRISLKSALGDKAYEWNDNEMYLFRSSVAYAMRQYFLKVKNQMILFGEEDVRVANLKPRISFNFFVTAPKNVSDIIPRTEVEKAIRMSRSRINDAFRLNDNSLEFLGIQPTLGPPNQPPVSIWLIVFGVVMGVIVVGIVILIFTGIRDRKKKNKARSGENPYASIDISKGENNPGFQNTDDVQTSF
From the text: as §1

HIV-1 protease = experiment: BioPrint panel: HIV-1 protease; format: biochemical; conditions: 1 micromolar
From the text: as §1

MMP-1 = biological target: T19, MMP-1 (Homo sapiens, UniProt P03956); experiment: BioPrint panel: MMP-1 (h); format: biochemical; conditions: 1 micromolar
T19 construct: purchased Eurofins Pharma Discovery Services (KinaseProfiler; Cerep BioPrint panel)
From the text: as §1

MMP-2 = biological target: T20, MMP-2 (Homo sapiens, UniProt P08253); experiment: BioPrint panel: MMP-2 (h); format: biochemical; conditions: 1 micromolar, read-out: percentage of inhibition of activity
T20 construct: purchased Eurofins Pharma Discovery Services (KinaseProfiler; Cerep BioPrint panel)
T20 sequence (P08253 110-660): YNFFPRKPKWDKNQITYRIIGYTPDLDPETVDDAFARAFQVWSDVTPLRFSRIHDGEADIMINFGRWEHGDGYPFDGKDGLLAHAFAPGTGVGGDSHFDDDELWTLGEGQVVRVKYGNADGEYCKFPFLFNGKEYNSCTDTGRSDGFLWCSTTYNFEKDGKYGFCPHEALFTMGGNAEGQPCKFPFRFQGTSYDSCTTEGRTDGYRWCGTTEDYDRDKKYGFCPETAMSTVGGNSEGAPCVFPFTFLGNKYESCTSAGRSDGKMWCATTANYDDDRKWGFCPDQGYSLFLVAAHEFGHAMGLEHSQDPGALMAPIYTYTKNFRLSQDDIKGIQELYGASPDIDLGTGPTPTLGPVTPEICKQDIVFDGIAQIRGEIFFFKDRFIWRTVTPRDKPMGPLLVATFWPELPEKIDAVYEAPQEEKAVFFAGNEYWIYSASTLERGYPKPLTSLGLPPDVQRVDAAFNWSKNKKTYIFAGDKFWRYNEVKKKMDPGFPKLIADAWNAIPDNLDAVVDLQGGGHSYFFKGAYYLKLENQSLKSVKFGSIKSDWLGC
From the text: as §1

MMP-9 = biological target: T21, MMP-9 (Homo sapiens, UniProt P14780); experiment: BioPrint panel: MMP-9 (h); format: biochemical; conditions: 1 micromolar, read-out: percentage of inhibition of activity
T21 construct: purchased Eurofins Pharma Discovery Services (KinaseProfiler; Cerep BioPrint panel)
From the text: as §1

Abl = biological target: T22, Abl (Homo sapiens, UniProt P00519); experiment: BioPrint panel: Abl kinase (h); format: biochemical; conditions: 1 micromolar, read-out: percentage of inhibition of activity
T22 construct: purchased Eurofins Pharma Discovery Services (KinaseProfiler; Cerep BioPrint panel)
From the text: as §1

p38alpha kinase = biological target: T23, p38alpha kinase (Homo sapiens, UniProt Q16539); experiment: BioPrint panel: p38alpha kinase (h); format: biochemical; conditions: 1 micromolar, read-out: percentage of inhibition of activity
T23 construct: purchased Eurofins Pharma Discovery Services (KinaseProfiler; Cerep BioPrint panel)
From the text: as §1

Guanylyl cylcase = experiment: BioPrint panel: Guanylyl cylcase (activator); format: biochemical; conditions: 1 micromolar
From the text: as §1

CHO-K1 cells = experiment: CHO-K1 viability (ATPlite); format: cell-based; conditions: 25 μM
Method: The viability of NHBE and CHO-K1 cells was quantified using ATP as an indirect read out of the potential cytotoxicity of the compounds. […] Plates were shaken and covered with aluminium foil for 25 min. Luminescence was measured in an Envision reader (Perkin Elmer). Evaluation of viability in CHO-K1 cells was used as an internal compound cytotoxicity standard across cellular assays. […] The plates were incubated for 24 h at 37°C in 5% CO2. After the incubation period, the culture medium was removed and washed with 100 μl of DPBS. Test compounds were dissolved and serially diluted in 100% DMSO. A final 1/100 dilution of each concentration was performed using F12 culture medium with 0.5% FBS. A volume of 100 μl culture medium containing the compounds or 1% DMSO (for control wells) was added to the wells containing the cells and the plate was incubated again 24h. After 24h of compound exposure, cells were washed with DPBS. Then, 100 μl of PBS were added, followed by the addition of 100 μl of ATPlite™ reagent. The plate was shaken for 25 minutes using a microtiter plate shaker. Luminescence was measured using a Luminoskan Ascent luminometer (Thermo Fisher Scientific).
For CHO-K1 viability assays, a standard curve of cells was included in the plate. Luminescence values versus cell number were plotted and the data adjusted to a linear equation. Luminescence values of the samples were interpolated to obtain number of cells. IC50 values were obtained by non-linear regression using Activity Base software (IDBS) and a four-parameter log equation.

## Cn1cc(-c2cccc(-c3nc(C(=O)NC4C5CC6CC4CC(O)(C6)C5)c(N)nc3N)c2)cn1 (stereo not shown) [compound 4]
[1]; Homo sapiens, THP-1, M-CSF stimulated, geometric mean, read-out: Activity in reference cell based assay (IC50, μM) (95% CI) Phosphorylation of Akt in THP1 cells
  IC50: 0.099 µM
[1]; Homo sapiens, THP-1, individual values, read-out: Cellular activity (IC50, mM) Akt phosphorylation in THP1
  IC50: 0.085 µM
[1]; individual values, read-out: Cellular activity (IC50, mM) Akt phosphorylation in THP1
  IC50: 0.117 µM
Alpha 1A
  inhibition at 1 µM: 2.8%
Alpha 2B
  inhibition at 1 µM: -6.6%
Beta 1
  inhibition at 1 µM: -1.8%
D2S
  inhibition at 1 µM: -1.5%
AMPA
  percentage of inhibition of activity: 3.7%
kainate
  percentage of inhibition of activity: 4.1%
[2]
  percentage of inhibition of activity: -5.3%
H3
  inhibition at 1 µM: 7.4%
BLT1 (LTB4)
  inhibition at 1 µM: 14.2%
MC1
  inhibition at 1 µM: -2.3%
MC4
  inhibition at 1 µM: -5.1%
MT1 (ML1A)
  inhibition at 1 µM: 4.2%
MAO-A
  inhibition at 1 µM: 6.4%
PAF
  inhibition at 1 µM: -2.1%
FP
  inhibition at 1 µM: 4.8%
5-HT1A
  inhibition at 1 µM: -1.1%
GR
  inhibition at 1 µM: 0.9%
[3]
  percentage of inhibition of activity: 6.4%
SKCa channel
  percentage of inhibition of activity: -10.2%
[4]
  inhibition at 1 µM: 26.7%
5-HT transporter
  inhibition at 1 µM: -8.5%
PDE4D2
  inhibition at 1 µM: 3%
ACE-2
  percentage of inhibition of activity: INTER
HIV-1 protease
  percentage of inhibition of activity: -16.1%
MMP-1
  percentage of inhibition of activity: INTER
MMP-2
  inhibition at 1 µM: 13.6%
MMP-9
  inhibition at 1 µM: -4.4%
Abl
  inhibition at 1 µM: -4.6%
p38alpha kinase
  inhibition at 1 µM: 1.5%
Guanylyl cylcase
  percentage of inhibition of activity: 0%

## COc1c(NC(=O)c2ccc(C)c(-c3nnc4c(NCC(C)(C)C)nccn34)c2)cc(C(C)(C)C)cc1NS(C)(=O)=O [compound 7, reference compound]
CHO-K1 cells
  Inhibition of CHO viability at [25 μM] % Inhibition ± SD: 0.39 ± 11%
